For 17 compounds, IC50 results are on record in ChEMBL document CHEMBL5226279, “Mercaptoacetamide: A promising zinc-binding group for the discovery of selective histone deacetylase 6 inhibitors” (Eur J Med Chem, 2021).

The target in assay [1] is T1, Protein deacetylase HDAC6 (Homo sapiens, UniProt Q9UBN7).
T1 sequence (Q9UBN7 whole entry): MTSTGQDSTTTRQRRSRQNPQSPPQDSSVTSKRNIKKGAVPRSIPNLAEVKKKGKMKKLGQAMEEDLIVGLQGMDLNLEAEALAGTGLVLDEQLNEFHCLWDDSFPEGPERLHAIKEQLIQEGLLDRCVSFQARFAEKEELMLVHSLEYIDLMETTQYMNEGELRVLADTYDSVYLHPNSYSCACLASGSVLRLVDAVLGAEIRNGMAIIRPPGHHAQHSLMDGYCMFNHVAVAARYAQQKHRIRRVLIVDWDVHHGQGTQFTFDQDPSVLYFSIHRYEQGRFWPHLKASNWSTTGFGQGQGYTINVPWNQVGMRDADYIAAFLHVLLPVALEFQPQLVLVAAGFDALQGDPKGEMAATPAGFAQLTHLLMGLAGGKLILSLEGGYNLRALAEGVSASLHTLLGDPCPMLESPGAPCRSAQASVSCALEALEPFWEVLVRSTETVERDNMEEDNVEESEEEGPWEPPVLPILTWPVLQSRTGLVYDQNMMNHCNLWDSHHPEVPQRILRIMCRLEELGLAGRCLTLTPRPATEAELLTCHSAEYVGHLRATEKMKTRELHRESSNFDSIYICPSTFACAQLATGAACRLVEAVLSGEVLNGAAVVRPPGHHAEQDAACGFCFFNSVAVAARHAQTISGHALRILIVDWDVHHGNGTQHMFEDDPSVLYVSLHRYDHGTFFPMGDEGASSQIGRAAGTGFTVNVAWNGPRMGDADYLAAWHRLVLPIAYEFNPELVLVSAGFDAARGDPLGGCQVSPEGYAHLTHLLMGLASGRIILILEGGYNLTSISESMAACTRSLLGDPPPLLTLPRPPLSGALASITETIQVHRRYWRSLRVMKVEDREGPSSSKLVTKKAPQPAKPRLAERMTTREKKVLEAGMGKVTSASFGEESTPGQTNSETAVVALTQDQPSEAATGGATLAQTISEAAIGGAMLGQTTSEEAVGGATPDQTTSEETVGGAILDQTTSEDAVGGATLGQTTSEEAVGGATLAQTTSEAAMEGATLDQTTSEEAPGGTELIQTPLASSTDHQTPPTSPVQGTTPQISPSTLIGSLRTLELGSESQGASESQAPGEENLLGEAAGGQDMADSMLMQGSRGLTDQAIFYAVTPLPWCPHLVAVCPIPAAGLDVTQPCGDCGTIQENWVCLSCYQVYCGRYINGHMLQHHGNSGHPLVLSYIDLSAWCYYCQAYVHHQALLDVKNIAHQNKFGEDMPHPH
As to the kind of experiment: Inhibition of human full length recombinant HDAC6 expressed in baculovirus infected Sf9 cells using RHKKAc as substrate preincubated for 5 to 10 mins followed by substrate addition and measured after 2 hrs by fluorescence based analysis.

Assay [2] has as its target Histone deacetylase 1 (Homo sapiens, UniProt Q13547). Description: Inhibition of human full length recombinant HDAC1 expressed in baculovirus infected Sf9 cells using RHKKAc as substrate preincubated for 5 to 10 mins followed by substrate addition and measured after 2 hrs by fluorescence based analysis.
Assay [3] deals with Histone deacetylase 2 (Homo sapiens, UniProt Q92769). As to the kind of experiment: Inhibition of human full length recombinant HDAC2 expressed in baculovirus infected Sf9 cells using RHKKAc as substrate preincubated for 5 to 10 mins followed by substrate addition and measured after 2 hrs by fluorescence based analysis.
Sequence of Histone deacetylase 2 (Q92769 whole entry): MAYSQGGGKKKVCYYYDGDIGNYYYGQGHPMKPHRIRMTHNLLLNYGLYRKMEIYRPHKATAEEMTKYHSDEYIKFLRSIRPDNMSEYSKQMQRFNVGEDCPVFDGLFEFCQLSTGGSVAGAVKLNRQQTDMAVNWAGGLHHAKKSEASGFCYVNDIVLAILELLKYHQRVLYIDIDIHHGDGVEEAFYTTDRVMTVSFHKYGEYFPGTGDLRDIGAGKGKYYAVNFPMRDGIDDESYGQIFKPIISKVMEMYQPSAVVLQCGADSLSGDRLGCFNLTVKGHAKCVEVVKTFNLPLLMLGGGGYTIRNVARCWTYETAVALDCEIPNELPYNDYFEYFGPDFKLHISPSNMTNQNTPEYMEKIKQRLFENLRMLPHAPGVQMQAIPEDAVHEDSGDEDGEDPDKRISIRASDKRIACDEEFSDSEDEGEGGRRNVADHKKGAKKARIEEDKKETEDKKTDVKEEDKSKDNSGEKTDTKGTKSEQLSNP

SMILES strings stand for the structures.

Broadly, the IC50 is the concentration that gives 50% inhibition.

Sequence of Histone deacetylase 1 (Q13547 whole entry): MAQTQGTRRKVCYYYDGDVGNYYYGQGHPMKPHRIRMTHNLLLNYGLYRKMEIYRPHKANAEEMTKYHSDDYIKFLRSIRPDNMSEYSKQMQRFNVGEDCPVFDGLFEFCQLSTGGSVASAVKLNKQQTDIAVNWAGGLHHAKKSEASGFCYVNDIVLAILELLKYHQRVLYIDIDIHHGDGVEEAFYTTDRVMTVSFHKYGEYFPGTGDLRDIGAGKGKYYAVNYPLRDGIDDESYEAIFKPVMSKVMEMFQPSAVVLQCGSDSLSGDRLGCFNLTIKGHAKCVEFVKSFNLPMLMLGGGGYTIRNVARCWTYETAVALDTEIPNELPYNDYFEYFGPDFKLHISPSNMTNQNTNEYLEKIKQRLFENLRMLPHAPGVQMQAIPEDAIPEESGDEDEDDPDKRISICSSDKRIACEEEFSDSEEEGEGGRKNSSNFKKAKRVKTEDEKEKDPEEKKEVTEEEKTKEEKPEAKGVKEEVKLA

For `Cc1noc(-c2ccccc2)c1C#CCCCCCNC(=O)C(C)S` (racemic), the IC50 in assay [1] was 2 µM; in assay [2] it was 2.7 µM; in assay [3] it was 7.5 µM.

`Cc1onc(-c2ccccc2)c1C(=O)NCCCCCNC(=O)C(C)(C)S`: the IC50 in assay [1], in assay [2] and in assay [3] was > 30 µM throughout.

With `Cc1noc(-c2ccccc2)c1C#CCCCCCNC(=O)C(C)(C)S`, the IC50 in assay [1], in assay [2] and in assay [3] was > 30 µM each time.

With `Cc1onc(-c2ccccc2)c1C=CCCCCCNC(=O)C(C)S` (mixture of isomers), the IC50 in assay [1] was 9.8 µM; in assay [2] it was > 30 µM; in assay [3], > 30 µM.

Turning to `Cc1onc(-c2ccccc2)c1COCCCCCNC(=O)C(C)S` (racemic), the IC50 came to 0.85 µM in assay [1], 9.6 µM in assay [2] and 14 µM in assay [3].

As to `Cc1noc(-c2cccc(F)c2)c1C#CCCCCCNC(=O)C(C)S` (racemic), the IC50 is 2.6 µM in assay [1], 3.7 µM in assay [2] and 9.4 µM in assay [3].

Turning to `Cc1onc(-c2ccccc2)c1C(=O)NCCCCCNC(=O)[C@H](C)S`, the IC50 in assay [1], in assay [2] and in assay [3] was > 30 µM throughout.

For the compound `Cc1onc(-c2ccccc2)c1C=CCCCCCNC(=O)CS` (mixture of isomers), the IC50 was 2.7 µM in assay [1], > 30 µM in assay [2] and > 30 µM in assay [3].

For the compound `Cc1onc(-c2ccccc2)c1C(=O)NCCCCCNC(=O)C(C)S` (racemic), the IC50 is 1.1 µM in assay [1], > 30 µM in assay [2] and > 30 µM in assay [3].

Regarding `Cc1onc(-c2ccccc2)c1C=CCCCCCNC(=O)C(C)(C)S` (mixture of isomers), the IC50 in assay [1], in assay [2] and in assay [3] was > 30 µM each time.

Turning to `Cc1onc(-c2ccccc2)c1/C=C/c1ccc(CNC(=O)C(C)(C)S)cc1`, the IC50 in assay [1], in assay [2] and in assay [3] was > 30 µM in each case.

Turning to `Cc1onc(-c2ccccc2)c1COCCCCCNC(=O)[C@H](C)S`, the IC50 in assay [1] and in assay [2] was > 30 µM in each case.

For the compound `Cc1onc(-c2ccccc2)c1/C=C/CCCCCNC(=O)CS`, the figures for the IC50 in assay [1] and in assay [2] were 3.5 µM and 28 µM, respectively.

On to `Cc1onc(-c2ccccc2)c1/C=C\CCCCCNC(=O)CS`, for which the IC50 in assay [1] was 4.8 µM; in assay [2] it was > 30 µM.

For `Cc1onc(-c2ccccc2)c1COCCCCCNC(=O)[C@@H](C)S`, the IC50 in assay [1] worked out at 0.83 µM; in assay [2], 1.5 µM.

Regarding `Cc1onc(-c2ccccc2)c1/C=C/c1ccc(CNC(=O)C(C)S)cc1` (racemic), the IC50 in assay [1], in assay [2] and in assay [3] was > 30 µM throughout.

Take `Cc1noc(-c2ccccc2)c1C#CCCCCNC(=O)C(C)(C)S`: the IC50 in assay [1], in assay [2] and in assay [3] was > 30 µM in each case.
